Reference: patent US11608335B2, “Somatostatin modulators and uses thereof” (CRINETICS PHARMACEUTICALS, INC., priority 2018, dated 2023)
pEC50: −log10 of the molar value. Read-outs that look alike come from different tables or passages of the source.

Assays:
[1] = molecular target: T1, human somatostatin receptor subtype 3 (Homo sapiens, UniProt P32745); experiment: cAMP assay for SST3R (inhibition of cAMP via human SST3 receptor); format: cell-based; settings: from inhibition of cAMP via human SST5 receptor and human SST3 receptor
T1 construct: expressed in transfected cells
Excerpt: cAMP Assay Protocol for SST3R:

[2] = molecular target: T2, human somatostatin receptor subtype 2 (Homo sapiens, UniProt P30874); experiment: cAMP assay for SST2R (inhibition of cAMP via human SST2 receptor); format: cell-based; settings: Table B, read-out: SST2 potency
T2 construct: expressed in transfected cells
Excerpt: cAMP Assay Protocol for SST2R:

[3] = molecular target: T3, human somatostatin receptor subtype 4 (Homo sapiens, UniProt P31391); experiment: cAMP assay for hSST4R (inhibition of cAMP via human SST4 receptor); format: cell-based; settings: from inhibition of cAMP via human SST5 receptor and human SST4 receptor
T3 construct: expressed in transfected cells
Excerpt: cAMP Assay Protocol hSST4R:

[4] = Liver microsomal stability assay; format: in vitro ADME; settings: both sexes, human, pooled human liver microsomes; read-out: HLM Stability t½
Experimental: Example B-2: Liver Microsomal Stability Assay Protocol
The in vitro stabilities of compounds of interest were determined for various species using pooled male and female human, pooled male Sprague-Dawley rat, pooled male Cynomolgus monkey, and pooled male Beagle dog liver microsomes at microsomal protein concentrations of 0.5 mg/mL. Incubations were carried out in a potassium phosphate buffer (50 mM). The NADPH-generating system was composed of NADP+ (1 mM), magnesium chloride (3 mM), EDTA (1 mM), glucose-6-phosphate (5 mM) and glucose-6-phosphate dehydrogenase (1 Unit/mL) for all experiments. Compounds of interest in DMSO/acetonitrile were added to achieve a final incubation concentration of 1 μM (final DMSO content was 0.1% v/v and final acetonitrile content was 0.9%). The final incubation volume was 400 μL. Incubations were conducted at 37° C. for 0, 5, 10, 20, 40 and 60 minutes in a shaking water bath and terminated by removing 50 μL of incubation mixture and adding to 100 μL of ice cold acetonitrile containing internal standard. Following precipitation by centrifugation at 3500 rpm and 4° C. for 30 minutes, compounds of interest and internal standard were analyzed in the resultant supernatant using a multiple reaction monitoring (MRM) LC-MS/MS method. MS conditions were optimized for each analyte.
(§1) Table E illustrates representative human liver microsomal stability and time dependent CYP2D6 inhibition (TDI) of exemplary compounds.

[5] = molecular target: human somatostatin receptor subtype 5 (Homo sapiens, UniProt P35346); experiment: cAMP assay for SST5R (inhibition of cAMP via human SST5 receptor); settings: for Fold selectivity for SST5 vs SST2: SST5 over SST2, class symbols
Experimental: cAMP Assay Protocol for SST5R:
The cells are cultured at 37° C., 5% CO2 and 95% humidity. […] The cells are incubated for 20 minutes at 37° C. […] The cells are treated with 50 μL of lysis buffer (HRTF cAMP kit, Cisbio) for 30 minutes and then the lysate is diluted to 250 μL with assay buffer. The lysate is transferred to 384-well plates and cAMP detection and visualization antibodies are added and incubated for 1-24 hours at room temperature. The time-resolved fluorescent signal is read with a Tecan M1000Pro multiplate reader. The intracellular cAMP concentrations are calculated by regression to a standard curve and are plotted vs. the concentration of the compounds of the invention and the EC50 of the compounds are calculated using standard methods. All data manipulations are in GraphPad Prism v6 or v7.

[6] = molecular target: T4, Cytochrome P450 (CYP) 2D6 enzyme (Homo sapiens, UniProt P10635); experiment: Cytochrome P450 (CYP) 2D6 enzyme time dependent inhibition (TDI) assay; format: in vitro ADME; settings: human liver microsomes
T4 construct: using pooled male and female human liver microsomes; from tissue; host or cells: pooled male and female human liver microsomes
Experimental: Example B-3: Cytochrome P450 (CYP) 2D6 Enzyme Time Dependent Inhibition (TDI) Assay Protocol
The NADPH-generating system mix was composed of potassium phosphate buffer pH 7.4 (50 mM), NADP+ (1 mM), magnesium chloride (3 mM), EDTA (1 mM), glucose-6-phosphate (5 mM), glucose-6-phosphate dehydrogenase (1 Unit/mL), human liver microsomes (0.1 mg/mL) and water. Compounds of interest in DMSO serial diluted to six different concentrations (final DMSO content of 0.1% v/v) were added to the NADPH-generating system. CYP 2D6 substrate Dextromethorphan was added at a final incubation concentration of 5 μM. The final incubation volume was 200 μL. Incubations were conducted at 37° C. for 10 minutes in a shaking water bath to evaluate the drug candidates as […] of CYP 2D6. In a separate test plate, drug candidates were pre-incubated at 37° C. for 30 minutes in a shaking water bath in NADPH-generating system mix in the absence of Dextromethorphan substrate to allow for the formation of metabolites. This plate was removed from the water bath and placed on ice for 5 minutes. Dextromethorphan substrate was then added and the plate was incubated at 37° C. for 10 minutes in a shaking water bath to determine if any metabolites formed during the 30 minute pre-incubation inhibit the CYP 2D6 enzyme. All incubations were terminated by removing 50 μL of incubation mixture and adding to 200 μL of ice cold acetonitrile containing internal standard. Following precipitation by centrifugation at 3500 rpm and 4° C. for 30 minutes, the resultant supernatant were analyzed by using a multiple reaction monitoring (MRM) LC-MS/MS method detecting for internal standard and the CYP 2D6 enzyme mediated Dextromethorphan O-demethylation metabolite Dextrorphan and IC50 values were determined.
as §1

[7] = read-out: SST5 potency, inhibition of cAMP via human SST5 receptor, Table B
[8] = t = 0 min pre-incubation, read-out: CYP2D6 inhibition, IC50 (μM) t = 0 min
[9] = t = 30 min pre-incubation, read-out: CYP2D6 inhibition, IC50 (μM) t = 30 min

human somatostatin receptor subtype 5, sequence (P35346 whole entry): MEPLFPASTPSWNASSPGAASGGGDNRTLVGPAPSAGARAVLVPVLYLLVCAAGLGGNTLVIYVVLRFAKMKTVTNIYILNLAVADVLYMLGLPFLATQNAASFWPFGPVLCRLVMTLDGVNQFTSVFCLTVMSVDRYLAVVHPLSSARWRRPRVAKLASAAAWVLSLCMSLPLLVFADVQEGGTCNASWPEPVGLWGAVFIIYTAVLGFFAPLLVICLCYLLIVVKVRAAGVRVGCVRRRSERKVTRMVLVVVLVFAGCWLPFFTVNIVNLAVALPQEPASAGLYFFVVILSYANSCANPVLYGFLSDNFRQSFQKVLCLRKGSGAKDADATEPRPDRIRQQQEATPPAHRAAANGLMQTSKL
T1 sequence (P32745 whole entry): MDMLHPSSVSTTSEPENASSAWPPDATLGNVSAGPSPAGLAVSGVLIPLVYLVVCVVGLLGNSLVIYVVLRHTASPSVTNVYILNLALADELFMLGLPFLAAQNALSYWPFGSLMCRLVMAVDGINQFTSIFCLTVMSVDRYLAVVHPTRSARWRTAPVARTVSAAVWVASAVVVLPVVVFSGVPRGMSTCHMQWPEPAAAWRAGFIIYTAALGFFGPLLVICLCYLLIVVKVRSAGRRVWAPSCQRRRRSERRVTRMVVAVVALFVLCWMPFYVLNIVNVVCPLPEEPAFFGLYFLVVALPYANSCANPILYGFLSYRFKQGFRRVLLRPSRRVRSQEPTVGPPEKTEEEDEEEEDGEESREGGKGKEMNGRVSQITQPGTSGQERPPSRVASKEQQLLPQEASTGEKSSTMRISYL
T3 sequence (P31391 whole entry): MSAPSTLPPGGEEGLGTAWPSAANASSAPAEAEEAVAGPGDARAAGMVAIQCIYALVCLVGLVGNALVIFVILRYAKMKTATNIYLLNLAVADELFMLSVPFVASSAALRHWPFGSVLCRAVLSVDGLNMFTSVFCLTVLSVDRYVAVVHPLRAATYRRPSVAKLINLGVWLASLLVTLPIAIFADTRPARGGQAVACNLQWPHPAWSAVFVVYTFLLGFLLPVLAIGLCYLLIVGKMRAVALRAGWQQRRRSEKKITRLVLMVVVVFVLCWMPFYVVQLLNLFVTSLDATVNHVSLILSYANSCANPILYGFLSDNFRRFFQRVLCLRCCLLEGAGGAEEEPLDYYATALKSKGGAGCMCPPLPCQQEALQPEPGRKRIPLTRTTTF
T4 sequence (P10635 whole entry): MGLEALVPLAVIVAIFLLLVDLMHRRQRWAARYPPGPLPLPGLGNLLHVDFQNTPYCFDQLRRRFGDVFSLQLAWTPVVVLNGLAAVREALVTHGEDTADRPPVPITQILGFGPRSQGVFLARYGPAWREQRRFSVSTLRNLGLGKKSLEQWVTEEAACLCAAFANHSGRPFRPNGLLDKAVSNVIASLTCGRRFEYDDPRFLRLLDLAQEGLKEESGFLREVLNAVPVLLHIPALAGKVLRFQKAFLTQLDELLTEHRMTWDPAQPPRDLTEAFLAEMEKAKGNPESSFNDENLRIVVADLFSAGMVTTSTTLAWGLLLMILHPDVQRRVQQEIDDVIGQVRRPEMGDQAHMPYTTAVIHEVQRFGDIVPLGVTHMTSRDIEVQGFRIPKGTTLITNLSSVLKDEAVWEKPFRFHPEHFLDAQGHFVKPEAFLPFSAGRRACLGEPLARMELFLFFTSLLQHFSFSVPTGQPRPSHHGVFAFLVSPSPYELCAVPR
T2 sequence (P30874 whole entry): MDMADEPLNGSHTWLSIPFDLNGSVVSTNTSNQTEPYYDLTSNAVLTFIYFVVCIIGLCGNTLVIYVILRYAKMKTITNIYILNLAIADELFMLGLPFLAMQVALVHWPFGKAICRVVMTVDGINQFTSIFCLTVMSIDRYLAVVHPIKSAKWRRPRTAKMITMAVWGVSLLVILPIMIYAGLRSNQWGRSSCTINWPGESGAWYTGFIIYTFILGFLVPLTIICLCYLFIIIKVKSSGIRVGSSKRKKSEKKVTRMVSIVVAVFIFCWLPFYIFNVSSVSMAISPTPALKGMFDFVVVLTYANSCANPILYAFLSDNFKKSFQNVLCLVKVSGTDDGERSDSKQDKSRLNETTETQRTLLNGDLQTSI

Structure (SMILES)	Fold selectivity for SST5 vs SST3 [1]	pEC50 [2]	Fold selectivity for SST5 vs SST4 [3]	half-life at 1 μM [4]	pEC50 [5]	Fold selectivity for SST5 vs SST2 [5]	pEC50 [5, 7]	IC50 [6, 8]	IC50 [6, 9]
Cc1cccc2nc(-c3cncc(-c4cc(F)cc(C(F)(F)F)c4)c3N3CC[C@H](N)C3)[nH]c12 [Compound 2-185, (3S)-1-{3-[3-fluoro-5-(trifluoromethyl)phenyl]-5-(4-methyl-1H-1,3-benzodiazol-2-yl)pyridin-4-yl}pyrrolidin-3-amine]	6.1 fold	6.00 to 7.00	1.2 fold	1.28 h	> 8.00	++ (++=100 to 499)	> 8.00	9.5 µM	2.3 µM
Cc1cccc2nc(-c3cncc(-c4cc(F)cc(F)c4)c3N3CC[C@H](N)C3)[nH]c12 [Compound 2-201, (3S)-1-[3-(3,5-difluorophenyl)-5-(4-methyl-1H-1,3-benzodiazol-2-yl)pyridin-4-yl]pyrrolidin-3-amine]	5.1 fold	7.00 to 8.00	1.0 fold	2.88 h	> 8.00	+ (+=10 to 99)	> 8.00	4.7 µM	1.8 µM
Cc1cc(F)cc(-c2cncc(-c3nc4cccc(C)c4[nH]3)c2N2CC[C@H](N)C2)c1 [Compound 2-182, (3S)-1-[3-(3-fluoro-5-methylphenyl)-5-(4-methyl-1H-1,3-benzodiazol-2-yl)pyridin-4-yl]pyrrolidin-3-amine]	6.3 fold	6.00 to 7.00	0.94 fold	0.883 h	> 8.00	++ (++=100 to 499)	> 8.00	7.6 µM	6.5 µM
Cc1cc(-c2cncc(-c3nc4c(F)cccc4[nH]3)c2N2CC[C@](C)(N)C2)ccn1 [Compound 2-178, (3S)-1-[5-(4-fluoro-1H-1,3-benzodiazol-2-yl)-2′-methyl-[3,4′-bipyridin]-4-yl]-3-methylpyrrolidin-3-amine]	147 fold	< 6.00		3.85 h	> 8.00	++ (++=100 to 499)	> 8.00	> 10 µM	9.7 µM
Cc1cccc2[nH]c(-c3cncc(-c4cc(F)cc(C#N)c4)c3N3CC[C@H](N)C3)nc12 [Compound 2-34, 3-{4-[(3S)-3-aminopyrrolidin-1-yl]-5-(4-methyl-1H-1,3-benzodiazol-2-yl)pyridin-3-yl}-5-fluorobenzonitrile]				> 11.6 h				> 10 µM	> 10 µM
C[C@]1(N)CCN(c2c(-c3ccnc(C(F)(F)F)c3)cncc2-c2nc3c(F)cccc3[nH]2)C1 [Compound 2-186, (3S)-1-[5-(4-fluoro-1H-1,3-benzodiazol-2-yl)-2′-(trifluoromethyl)-[3,4′-bipyridin]-4-yl]-3-methylpyrrolidin-3-amine]	158 fold	6.00 to 7.00		5.78 h	> 8.00	+++ (+++=≥500)	> 8.00	5.4 µM	1.1 µM

More lines, now with the values ahead:

Fold selectivity for SST5 vs SST3 [1]	pEC50 [2]	Fold selectivity for SST5 vs SST4 [3]	half-life at 1 μM [4]	pEC50 [5]	Fold selectivity for SST5 vs SST2 [5]	pEC50 [5, 7]	IC50 [6, 8]	IC50 [6, 9]	Structure (SMILES)
16 fold	7.00 to 8.00		2.32 h	> 8.00	+ (+=10 to 99)	> 8.00	> 10 µM	> 10 µM	Cc1ccnc2nc(-c3cncc(-c4ccc(F)c(F)c4)c3N3CC[C@](C)(N)C3)[nH]c12 [Compound 2-190, (3S)-1-[3-(3,4-difluorophenyl)-5-{7-methyl-1H-imidazo[4,5-b]pyridin-2-yl}pyridin-4-yl]-3-methylpyrrolidin-3-amine]
18 fold	7.00 to 8.00		1.65 h	> 8.00	++ (++=100 to 499)	> 8.00	4.2 µM	4.7 µM	Cc1ccnc2nc(-c3cncc(-c4ccc(F)c(Cl)c4)c3N3CC[C@](C)(N)C3)[nH]c12 [Compound 2-192, (3S)-1-[3-(3-chloro-4-fluorophenyl)-5-{7-methyl-1H-imidazo[4,5-b]pyridin-2-yl}pyridin-4-yl]-3-methylpyrrolidin-3-amine]
93 fold	6.00 to 7.00		0.683 h	> 8.00	++ (++=100 to 499)	> 8.00	> 10 µM	2.9 µM	COc1cc(-c2cncc(-c3nc4c(F)cccc4[nH]3)c2N2CC[C@](C)(N)C2)ccn1 [Compound 2-187, (3S)-1-[5-(4-fluoro-1H-1,3-benzodiazol-2-yl)-2′-methoxy-[3,4′-bipyridin]-4-yl]-3-methylpyrrolidin-3-amine]
16 fold	6.00 to 7.00		0.55 h	> 8.00	++ (++=100 to 499)	> 8.00	> 10 µM	8.7 µM	Cc1cc(-c2cncc(-c3nc4nccc(C)c4[nH]3)c2N2CC[C@](C)(N)C2)ccc1F [Compound 2-188, (3S)-1-[3-(4-fluoro-3-methylphenyl)-5-{7-methyl-1H-imidazo[4,5-b]pyridin-2-yl}pyridin-4-yl]-3-methylpyrrolidin-3-amine]
27 fold	7.00 to 8.00		> 11.6 h	> 8.00	++ (++=100 to 499)	> 8.00	> 10 µM	> 10 µM	COc1cc(-c2cncc(-c3nc4nccc(C)c4[nH]3)c2N2CC[C@](C)(N)C2)ccc1F [Compound 2-189, (3S)-1-[3-(4-fluoro-3-methoxyphenyl)-5-{7-methyl-1H-imidazo[4,5-b]pyridin-2-yl}pyridin-4-yl]-3-methylpyrrolidin-3-amine]
24 fold	6.00 to 7.00		2.32 h	> 8.00	+++ (+++=≥500)	> 8.00	5.7 µM	5.1 µM	Cc1ccnc2nc(-c3cncc(-c4ccc(F)c(C(F)(F)F)c4)c3N3CC[C@](C)(N)C3)[nH]c12 [Compound 2-191, (3S)-1-{3-[4-fluoro-3-(trifluoromethyl)phenyl]-5-{7-methyl-1H-imidazo[4,5-b]pyridin-2-yl}pyridin-4-yl}-3-methylpyrrolidin-3-amine]
118 fold	7.00 to 8.00		> 11.6 h	> 8.00	++ (++=100 to 499)	> 8.00	> 10 µM	> 10 µM	Cc1ccnc2[nH]c(-c3cncc(-c4ccc(F)c(C#N)c4)c3N3CC[C@](C)(N)C3)nc12 [Compound 2-154, 5-{4-[(3S)-3-amino-3-methylpyrrolidin-1-yl]-5-{7-methyl-1H-imidazo[4,5-b]pyridin-2-yl}pyridin-3-yl}-2-fluorobenzonitrile]
